Source: patent US20230279036A1, “Salts of Remdesivir” (Apotex Inc., priority 2020, published 2023)

Assay: PXRD study of crystalline form stability in a 40° C./75% RH stability chamber
Type: physicochemical
Conditions: capped and uncapped samples, at least one year
Description: Remdesivir napsylate Form APO-I can be characterized by a PXRD diffractogram comprising, among other peaks, characteristic peaks, expressed in degrees 2θ (±0.2°), at 5.1°, 6.5° and 13.1°. Preferably, the PXRD diffractogram further comprises at least three peaks, expressed in degrees 2θ (±0.2°), selected from the group consisting of 4.5°, 9.0°, 10.0°, 11.5°, 13.6°, 15.3°, 16.4°, 17.2°, 20.2° and 24.3°. More preferably, the PXRD diffractogram further comprises peaks, expressed in degrees 2θ (±0.2°), at 4.5°, 9.0°, 10.0°, 11.5°, 13.6°, 15.3°, 16.4°, 17.2°, 20.2° and 24.3°.
Remdesivir tosylate Form APO-I can be characterized by a PXRD diffractogram comprising, among other peaks, characteristic peaks, expressed in degrees […] (±0.2°), at 5.5°, 7.7° and 13.1°. Preferably, the PXRD diffractogram further comprises at least three peaks, expressed in degrees 2θ (±0.2°), selected from the group consisting of 4.5°, 6.5°, 9.1°, 9.8°, 16.0°, 16.6°, 17.1°, 17.5°, 18.4° and 20.0°. More preferably, the PXRD diffractogram further comprises peaks, expressed in degrees 2θ (±0.2°), at 4.5°, 6.5°, 9.1°, 9.8°, 16.0°, 16.6°, 17.1°, 17.5°, 18.4° and 20.0°.
The PXRD diffractogram was recorded on a Bruker D8 Discover powder X-ray diffractometer (Bruker-AXS, Karlsruhe, Germany). […] Raw data was evaluated using the program EVA (Bruker-AXS, Karlsruhe, Germany).

Row | SMILES | change in the crystalline form by PXRD
1 | CCC(CC)COC(=O)C(C)NP(=O)(OCC1OC(C#N)(c2ccc3c(N)ncnn23)C(O)C1O)Oc1ccccc1.O=S(=O)(O)c1ccc2ccccc2c1 (centres unmarked) [remdesivir napsylate Form APO-I, remdesivir naphthalene-2-sulfonate Form APO-I] | no change in the crystalline form occurred
2 | CCC(CC)COC(=O)[C@H](C)N[P@](=O)(OC[C@H]1O[C@@](C#N)(c2ccc3c(N)ncnn23)[C@H](O)[C@@H]1O)Oc1ccccc1.Cc1ccc(S(=O)(=O)O)cc1 [remdesivir tosylate Form APO-1, remdesivir tosylate Form APO-I] | no change in the crystalline form occurred
